Data: ChEMBL document CHEMBL3046044, “Evaluation of mefenamic acid mutual prodrugs” (Med Chem Res, 2013)

Key:
Rattus norvegicus [1] = assay: Antioxidant activity in Rattus norvegicus (rat) stomach assessed as reduction of lipid peroxidation measured MDA level per mg of protein at 1260 mg/kg, po after 12 hr by TBARS assay (reference value: 4.388 +/- 0.404 nM); type: functional
Rattus norvegicus [2] = assay: Antioxidant activity in Rattus norvegicus (rat) stomach assessed as effect on GSH level measured per 100 g of protein at 1240 mg/kg, po after 12 hr by Ellman's method (reference value: 350.735 +/- 42.887 uM); type: functional
[3] = Solubility of the compound in benzene at 10 mg; type: physicochemical
[4] = Solubility of the compound in dichloromethane at 10 mg; type: physicochemical
Rattus norvegicus [5] = assay: Anti-inflammatory activity in Rattus norvegicus Wistar albino (rat) assessed as inhibition of carrageenan-induced paw edema at 124 mg/kg, po measured at 4 hr relative to control; type: functional
Rattus norvegicus [6] = assay: Reduction of gastric wall mucus level in Rattus norvegicus (rat) stomach measured per mg of protein at 1240 mg/kg, po after 12 hr by alcian blue staining (reference value: 285.680 +/- 3.348 ug); type: functional
Rattus norvegicus [7] = assay: Effect on protein level in Rattus norvegicus (rat) stomach at 1240 mg/kg, po after 12 hr by Bradford method (reference value: 42.5 +/- 5.773 ug/ml); type: functional
[8] = n-Octanol-phosphate buffer partition coefficient, log P of the compound at pH 7.4 by HPLC method; type: physicochemical
[9] = Solubility of the compound in ethanol at 10 mg; type: physicochemical
[10] = Solubility of the compound in chloroform at 10 mg; type: physicochemical
[11] = Solubility of the compound in 0.1 N sodium hydroxide at 10 mg; type: physicochemical
[12] = Half life in hydrochloric acid buffer at 10 mg at pH 1.2; type: physicochemical
[13] = Half life in Homo sapiens (human) 80% plasma at 10 mg at pH 7.4; type: ADME, cell-free; conditions: 80% human plasma
Rattus norvegicus [14] = assay: Increase in hexosamine level in Rattus norvegicus (rat) stomach at 1240 mg/kg, po after 12 hr (reference value: 122.323 +/- 4.639 ug/ml); type: functional
Rattus norvegicus [15] = assay: Anti-inflammatory activity in Rattus norvegicus Wistar albino (rat) assessed as inhibition of carrageenan-induced paw edema at 124 mg/kg, po measured at 24 hr relative to control; type: functional
[16] = Solubility of the compound in methanol at 10 mg; type: physicochemical
Rattus norvegicus [17] = assay: Anti-inflammatory activity in Rattus norvegicus Wistar albino (rat) assessed as inhibition of carrageenan-induced paw edema at 124 mg/kg, po measured at 3 hr relative to control; type: functional
Rattus norvegicus [18] = assay: Ulcerogenicity in Rattus norvegicus (rat) stomach assessed as ulcer index at 1240 mg/kg, po after 12 hr (reference value: 3.413 +/- 2.160 no unit); type: toxicity, organism-based; parameters: dose 1240 mg/kg, route oral; conditions: in vivo
[19] = Solubility of the compound in 0.1 N hydrochloric acid at 10 mg; type: physicochemical
Rattus norvegicus [20] = assay: Antioxidant activity in Rattus norvegicus (rat) stomach assessed as effect on catalase level measured per mg of protein at 1240 mg/kg, po after 12 hr by spectrophotometric analysis (reference value: 26.055 +/- 4.669 U); type: functional
Rattus norvegicus [21] = assay: Anti-inflammatory activity in Rattus norvegicus Wistar albino (rat) assessed as inhibition of carrageenan-induced paw edema at 124 mg/kg, po measured at 6 hr relative to control; type: functional
Mus musculus = assay: Analgesic activity in po dosed Mus musculus Swiss albino (mouse) assessed as inhibition of acetic acid-induced writhing administered 1 hr prior to acetic acid challenge measured for 20 min relative to control; type: functional
Rattus norvegicus [22] = assay: Inhibition of superoxide dismutase level in Rattus norvegicus (rat) stomach at 1240 mg/kg, po after 12 hr (reference value: 37.096 +/- 7.335%); type: functional
[23] = Half life in isotonic phosphate buffer at 10 mg at pH 7.4; type: physicochemical
Rattus norvegicus [24] = assay: Anti-inflammatory activity in Rattus norvegicus Wistar albino (rat) assessed as inhibition of carrageenan-induced paw edema at 80 mg/kg, po measured at 24 hr relative to control; type: functional
Rattus norvegicus [25] = assay: Inhibition of superoxide dismutase level in Rattus norvegicus (rat) stomach at 800 mg/kg, po after 12 hr (reference value: 37.096 +/- 7.335%); type: functional
Rattus norvegicus [26] = assay: Reduction of gastric wall mucus level in Rattus norvegicus (rat) stomach measured per mg of protein at 800 mg/kg, po after 12 hr by alcian blue staining (reference value: 285.680 +/- 3.348 ug); type: functional
Rattus norvegicus [27] = assay: Antioxidant activity in Rattus norvegicus (rat) stomach assessed as reduction of lipid peroxidation measured MDA level per mg of protein at 1240 mg/kg, po after 12 hr by TBARS assay (reference value: 4.388 +/- 0.404 nM); type: functional
Rattus norvegicus [28] = assay: Antioxidant activity in Rattus norvegicus (rat) stomach assessed as effect on catalase level measured per mg of protein at 800 mg/kg, po after 12 hr by spectrophotometric analysis (reference value: 26.055 +/- 4.669 U); type: functional
Rattus norvegicus [29] = assay: Anti-inflammatory activity in Rattus norvegicus Wistar albino (rat) assessed as inhibition of carrageenan-induced paw edema at 80 mg/kg, po measured at 4 hr relative to control; type: functional
Rattus norvegicus [30] = assay: Antioxidant activity in Rattus norvegicus (rat) stomach assessed as effect on GSH level measured per 100 g of protein at 800 mg/kg, po after 12 hr by Ellman's method (reference value: 350.735 +/- 42.887 uM); type: functional
Rattus norvegicus [31] = assay: Effect on protein level in Rattus norvegicus (rat) stomach at 800 mg/kg, po after 12 hr by Bradford method (reference value: 42.5 +/- 5.773 ug/ml); type: functional
Rattus norvegicus [32] = assay: Increase in hexosamine level in Rattus norvegicus (rat) stomach at 800 mg/kg, po after 12 hr (reference value: 122.323 +/- 4.639 ug/ml); type: functional
Rattus norvegicus [33] = assay: Anti-inflammatory activity in Rattus norvegicus Wistar albino (rat) assessed as inhibition of carrageenan-induced paw edema at 80 mg/kg, po measured at 3 hr relative to control; type: functional
Rattus norvegicus [34] = assay: Anti-inflammatory activity in Rattus norvegicus Wistar albino (rat) assessed as inhibition of carrageenan-induced paw edema at 80 mg/kg, po measured at 6 hr relative to control; type: functional
Rattus norvegicus [35] = assay: Ulcerogenicity in Rattus norvegicus (rat) stomach assessed as ulcer index at 800 mg/kg, po after 12 hr (reference value: 3.413 +/- 2.160 no unit); type: toxicity, organism-based; parameters: dose 800 mg/kg, route oral; conditions: in vivo
Rattus norvegicus [36] = assay: Anti-inflammatory activity in Rattus norvegicus Wistar albino (rat) assessed as inhibition of carrageenan-induced paw edema at 126 mg/kg, po measured at 6 hr relative to control; type: functional
Rattus norvegicus [37] = assay: Inhibition of superoxide dismutase level in Rattus norvegicus (rat) stomach at 1260 mg/kg, po after 12 hr (reference value: 37.096 +/- 7.335%); type: functional
Rattus norvegicus [38] = assay: Ulcerogenicity in Rattus norvegicus (rat) stomach assessed as ulcer index at 1260 mg/kg, po after 12 hr (reference value: 3.413 +/- 2.160 no unit); type: toxicity, organism-based; parameters: dose 1260 mg/kg, route oral; conditions: in vivo
Rattus norvegicus [39] = assay: Anti-inflammatory activity in Rattus norvegicus Wistar albino (rat) assessed as inhibition of carrageenan-induced paw edema at 126 mg/kg, po measured at 4 hr relative to control; type: functional
Rattus norvegicus [40] = assay: Reduction of gastric wall mucus level in Rattus norvegicus (rat) stomach measured per mg of protein at 1260 mg/kg, po after 12 hr by alcian blue staining (reference value: 285.680 +/- 3.348 ug); type: functional
Rattus norvegicus [41] = assay: Increase in hexosamine level in Rattus norvegicus (rat) stomach at 1260 mg/kg, po after 12 hr (reference value: 122.323 +/- 4.639 ug/ml); type: functional
Rattus norvegicus [42] = assay: Antioxidant activity in Rattus norvegicus (rat) stomach assessed as effect on GSH level measured per 100 g of protein at 1260 mg/kg, po after 12 hr by Ellman's method (reference value: 350.735 +/- 42.887 uM); type: functional
Rattus norvegicus [43] = assay: Anti-inflammatory activity in Rattus norvegicus Wistar albino (rat) assessed as inhibition of carrageenan-induced paw edema at 126 mg/kg, po measured at 24 hr relative to control; type: functional
Rattus norvegicus [44] = assay: Antioxidant activity in Rattus norvegicus (rat) stomach assessed as reduction of lipid peroxidation measured MDA level per mg of protein at 800 mg/kg, po after 12 hr by TBARS assay (reference value: 4.388 +/- 0.404 nM); type: functional
Rattus norvegicus [45] = assay: Antioxidant activity in Rattus norvegicus (rat) stomach assessed as effect on catalase level measured per mg of protein at 1260 mg/kg, po after 12 hr by spectrophotometric analysis (reference value: 26.055 +/- 4.669 U); type: functional
Rattus norvegicus [46] = assay: Anti-inflammatory activity in Rattus norvegicus Wistar albino (rat) assessed as inhibition of carrageenan-induced paw edema at 126 mg/kg, po measured at 3 hr relative to control; type: functional
Rattus norvegicus [47] = assay: Effect on protein level in Rattus norvegicus (rat) stomach at 1260 mg/kg, po after 12 hr by Bradford method (reference value: 42.5 +/- 5.773 ug/ml); type: functional

SMILES: Cc1ccc(C(C)C)c(OC(=O)c2ccccc2Nc2cccc(C)c2C)c1
- Activity (Rattus norvegicus [1]): 13.972 nM
- Activity (Rattus norvegicus [2]): 286.765 µM
- solubility [3]: soluble
- solubility [4]: soluble
- inhibition in vivo at 124 mg/kg (Rattus norvegicus [5]): 41.7%
- Activity (Rattus norvegicus [6]): 190.256 µg
- Activity (Rattus norvegicus [7]): 42.917 µg/mL
- logD [8]: 5.45
- solubility [9]: soluble
- solubility [10]: soluble
- solubility [11]: soluble
- half-life [12]: 23.1 h
- half-life [13]: 1.14 h
- Activity (Rattus norvegicus [14]): 151.249 µg/mL
- inhibition in vivo at 124 mg/kg (Rattus norvegicus [15]): 62.4%
- solubility [16]: soluble
- inhibition in vivo at 124 mg/kg (Rattus norvegicus [17]): 37.8%
- UI (Rattus norvegicus [18]): 6.833
- solubility [19]: Insoluble
- Activity (Rattus norvegicus [20]): 23.089 U
- inhibition in vivo at 124 mg/kg (Rattus norvegicus [21]): 51%
- inhibition (INH) (Mus musculus): 52.722%
- inhibition in vivo at 1240 mg/kg (Rattus norvegicus [22]): 33.3%
- half-life [23]: 7.11 h

SMILES: Cc1cccc(Nc2ccccc2C(=O)O)c1C [MEFENAMIC ACID]
- inhibition in vivo at 80 mg/kg (Rattus norvegicus [24]): 69.1%
- inhibition in vivo at 800 mg/kg (Rattus norvegicus [25]): 24.2%
- Activity (Rattus norvegicus [26]): 170.026 µg
- solubility [3]: soluble
- Activity (Rattus norvegicus [27]): 26.25 nM
- solubility [4]: soluble
- Activity (Rattus norvegicus [28]): 4.587 U
- inhibition in vivo at 80 mg/kg (Rattus norvegicus [29]): 50.6%
- Activity (Rattus norvegicus [30]): 413.603 µM
- solubility [9]: soluble
- solubility [10]: soluble
- solubility [11]: soluble
- Activity (Rattus norvegicus [31]): 12.083 µg/mL
- solubility [16]: soluble
- solubility [19]: Insoluble
- Activity (Rattus norvegicus [32]): 139.224 µg/mL
- inhibition in vivo at 80 mg/kg (Rattus norvegicus [33]): 48.8%
- inhibition in vivo at 80 mg/kg (Rattus norvegicus [34]): 64.1%
- inhibition (INH) (Mus musculus): 63.321%
- UI (Rattus norvegicus [35]): 10.867

SMILES: Cc1cccc(Nc2ccccc2C(=O)OC2CC(C)CCC2C(C)C)c1C (stereo not drawn) [Mefenamic acid-menthol]
- inhibition in vivo at 126 mg/kg (Rattus norvegicus [36]): 51.6%
- inhibition in vivo at 1260 mg/kg (Rattus norvegicus [37]): 29.2%
- UI (Rattus norvegicus [38]): 5.117
- inhibition in vivo at 126 mg/kg (Rattus norvegicus [39]): 44.1%
- Activity (Rattus norvegicus [40]): 227.7692 µg
- solubility [3]: soluble
- solubility [4]: soluble
- Activity (Rattus norvegicus [41]): 144.445 µg/mL
- logD [8]: 4.98
- solubility [9]: soluble
- solubility [10]: soluble
- solubility [11]: soluble
- half-life [12]: 20.8 h
- half-life [13]: 1.43 h
- Activity (Rattus norvegicus [42]): 261.03 µM
- solubility [16]: soluble
- solubility [19]: Insoluble
- inhibition in vivo at 126 mg/kg (Rattus norvegicus [43]): 67.1%
- Activity (Rattus norvegicus [44]): 16.056 nM
- Activity (Rattus norvegicus [45]): 23.807 U
- inhibition (INH) (Mus musculus): 55.184%
- inhibition in vivo at 126 mg/kg (Rattus norvegicus [46]): 41.7%
- Activity (Rattus norvegicus [47]): 32.083 µg/mL
- half-life [23]: 8.87 h
